Measurements: patent US12458021B2, “Microbiocidal derivatives” (SYNGENTA CROP PROTECTION AG, priority 2019, dated 2025)

Legend:
[1] = system: Puccinia recondita f. sp. tritici; assay: Puccinia recondita f. sp. tritici / wheat / leaf disc preventative (brown rust); type: in vivo; settings: foliar, wheat leaf segments cv. Kanzler, inoculated 1 day after application, assessed 7-9 days after application, read-out: control of Puccinia recondita f. sp. tritici, preventative (percent disease control compared to untreated)
Procedure: Example B11: Puccinia recondita f. sp. tritici/Wheat/Leaf Disc Preventative (Brown Rust) Wheat leaf segments cv. Kanzler are placed on agar in multiwell plates (24-well format) and sprayed with the formulated test compound diluted in water. The leaf disks are inoculated with a spore suspension of the fungus 1 day after application. The inoculated leaf segments are incubated at 19° C. and 75% rh under a light regime of 12 h light/12 h darkness in a climate cabinet and the activity of a compound is assessed as percent disease control compared to untreated when an appropriate level of disease damage appears in untreated check leaf segments (7-9 days after application). […] […]-190.

[2] = system: Monographella nivalis (Microdochium nivale); assay: Monographella nivalis (Microdochium nivale) / liquid culture (foot rot cereals); type: cell-based; settings: PDB potato dextrose broth, 24° C., 4-5 days after application, read-out: control of Monographella nivalis (inhibition of growth, photometric)
Procedure: Example B7: Monographella nivalis (Microdochium nivale)/Liquid Culture (Foot Rot Cereals) Conidia of the fungus from cryogenic storage are directly mixed into nutrient broth (PDB potato dextrose broth). After placing a (DMSO) solution of test compound into a microtiter plate (96-well format), the nutrient broth containing the fungal spores is added. The test plates are incubated at 24° C. and the inhibition of growth is determined photometrically 4-5 days after application. […] […]-190.

[3] = system: Glomerella lagenarium (Colletotrichum lagenarium); assay: Glomerella lagenarium (Colletotrichum lagenarium) / liquid culture (anthracnose); type: cell-based; settings: Colletotrichum orbiculare, PDB potato dextrose broth, 24° C., 3-4 days after application, read-out: control of Glomerella lagenarium (inhibition of growth, photometric)
Outline: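 Conidia from cryogenic storage suspended in potato dextrose broth and added to DMSO compound solution in plates. Incubated at 24° C; growth inhibition read photometrically 3-4 days after application.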

[4] = system: Mycosphaerella graminicola (Septoria tritici); assay: Mycosphaerella graminicola (Septoria tritici) / liquid culture (Septoria blotch); type: cell-based; settings: Zymoseptoria tritici, PDB potato dextrose broth, 24° C., 4-5 days after application, read-out: control of Mycosphaerella graminicola (inhibition of growth, photometric)
Procedure: Example B15: Mycosphaerella graminicola (Septoria tritici)/Liquid Culture (Septoria Blotch) Conidia of the fungus from cryogenic storage are directly mixed into nutrient broth (PDB potato dextrose broth). After placing a (DMSO) solution of test compound into a microtiter plate (96-well format), the nutrient broth containing the fungal spores is added. The test plates are incubated at 24° C. and the inhibition of growth is determined photometrically 4-5 days after application. […] […]-191.

[5] = system: Magnaporthe grisea (Pyricularia oryzae); assay: whole plant or invertebrate; type: in vivo; settings: foliar, read-out: control of Magnaporthe grisea (percent disease control compared to untreated)
[6] = system: Blumeria graminis f. sp. tritici (Erysiphe graminis f. sp. tritici); assay: Blumeria graminis f. sp. tritici / wheat / leaf disc preventative (powdery mildew on wheat); type: in vivo; settings: foliar, wheat leaf segments cv. Kanzler, inoculated 1 day after application, assessed 6-8 days after application, read-out: control of Blumeria graminis f. sp. tritici (percent disease control compared to untreated)
Source text: Example B4: Blumeria graminis f. sp. tritici (Erysiphe graminis f. sp. tritici)/Wheat/Leaf Disc Preventative (Powdery Mildew on Wheat) Wheat leaf segments cv. Kanzler are placed on agar in a multiwell plate (24-well format) and sprayed with the formulated test compound diluted in water. The leaf disks are inoculated by shaking powdery mildew infected plants above the test plates 1 day after application. […] […]-192.

Work on `CC1(C)CCC1NC(=O)c1nc(Nc2cc(F)nc(F)c2)ccc1O` (stereo not drawn) [Compound P-1, 6-[(2,6-difluoro-4-pyridyl)amino]-N-(2,2-dimethylcyclobutyl)-3-hydroxy-pyridine-2-carboxamide] yielded a pest or weed control at 200 ppm [1] of at least 80%, an inhibition at 20 ppm [2] of at least 80% and an inhibition at 20 ppm [3] of at least 80%. It also gave an inhibition at 20 ppm [4] of at least 80%.
`COc1ccc(N(C#N)c2cc(F)cc(F)c2)nc1C(=O)NC1CCC1(C)C` (stereo not drawn) [Compound P-20, 6-(N-cyano-3,5-difluoro-anilino)-N-(2,2-dimethylcyclobutyl)-3-methoxy-pyridine-2-carboxamide] showed a pest or weed control at 200 ppm [5] of at least 80%, an inhibition at 20 ppm [3] of at least 80% and a pest or weed control at 200 ppm [6] of at least 80%. It also gave an inhibition at 20 ppm [4] of at least 80%.
For `COc1ccc(Nc2cc(F)nc(F)c2)nc1C(=O)NCCc1ccccc1` [Compound P-31, 6-[(2,6-difluoro-4-pyridyl)amino]-3-methoxy-N-(2-phenylethyl)pyridine-2-carboxamide], the pest or weed control at 200 ppm [1] was at least 80%.
Molecule `COc1ccc(Nc2cc(F)nc(F)c2)nc1C(=O)NCC1(C)CCOC2(CCC2)C1` (stereo not drawn) [Compound P-52, 6-[(2,6-difluoro-4-pyridyl)amino]-3-methoxy-N-[(8-methyl-5-oxaspiro[3.5]nonan-8-yl)methyl]pyridine-2-carboxamide] has a pest or weed control at 200 ppm [5] of at least 80%, an inhibition at 20 ppm [3] of at least 80% and a pest or weed control at 200 ppm [6] of at least 80%.
Molecule `COc1ccc(Nc2cc(F)cc(F)c2)nc1C(=O)NC(C)C1CCOCC1` (stereo not drawn) [Compound P-61, 6-(3,5-difluoroanilino)-3-methoxy-N-(1-tetrahydropyran-4-ylethyl)pyridine-2-carboxamide] has a pest or weed control at 200 ppm [5] of at least 80%, an inhibition at 20 ppm [3] of at least 80% and a pest or weed control at 200 ppm [6] of at least 80%.
`COc1ccc(Nc2cnsc2)nc1C(=O)NCc1cnc(C(F)(F)F)nc1` [Compound P-80, 6-(isothiazol-4-ylamino)-3-methoxy-N-[[2-(trifluoromethyl)pyrimidin-5-yl]methyl]pyridine-2-carboxamide] showed a pest or weed control at 200 ppm [1] of at least 80%.
`COc1ccc(Nc2cc(F)nc(F)c2)nc1C(=O)NC1(C)CC1` [Compound P-92, 6-[(2,6-difluoro-4-pyridyl)amino]-3-methoxy-N-(1-methylcyclopropyl)pyridine-2-carboxamide] showed a pest or weed control at 200 ppm [1] of at least 80% and a pest or weed control at 200 ppm [6] of at least 80%.
`CCOc1ccc(Nc2cc(F)nc(F)c2)nc1C(=O)NC(C)(C)C` [Compound P-95, N-tert-butyl-6-[(2,6-difluoro-4-pyridyl)amino]-3-ethoxy-pyridine-2-carboxamide] gave a pest or weed control at 200 ppm [5] of at least 80%, an inhibition at 20 ppm [2] of at least 80% and an inhibition at 20 ppm [3] of at least 80%. It also gave a pest or weed control at 200 ppm [6] of at least 80%.
`COc1ccc(Nc2cncc(F)c2)nc1C(=O)NC(C)(C)C` [Compound P-103, N-tert-butyl-6-[(5-fluoro-3-pyridyl)amino]-3-methoxy-pyridine-2-carboxamide] showed a pest or weed control at 200 ppm [5] of at least 80% and a pest or weed control at 200 ppm [6] of at least 80%.
`COc1ccc(Nc2cncc(F)c2)nc1C(=O)NC1CCC1(C)C` (stereo not drawn) [Compound P-104, N-(2,2-dimethylcyclobutyl)-6-[(5-fluoro-3-pyridyl)amino]-3-methoxy-pyridine-2-carboxamide] was tested, and the pest or weed control at 200 ppm [5] was at least 80%, the inhibition at 20 ppm [2] was at least 80% and the inhibition at 20 ppm [3] was at least 80%. It also gave a pest or weed control at 200 ppm [6] of at least 80% and an inhibition at 20 ppm [4] of at least 80%.
`CC(C)(C)CNC(=O)c1cccc(Nc2cc(F)nc(F)c2)n1` [Compound P-113, 6-[(2,6-difluoro-4-pyridyl)amino]-N-(2,2-dimethylpropyl)pyridine-2-carboxamide] showed a pest or weed control at 200 ppm [5] of at least 80%, an inhibition at 20 ppm [2] of at least 80% and an inhibition at 20 ppm [3] of at least 80%. For the same molecule, the pest or weed control at 200 ppm [6] was at least 80% and the inhibition at 20 ppm [4] was at least 80%.
Molecule `COc1ccc(Nc2cc(F)cc(F)c2)nc1C(=O)NC1(C)COC1` [Compound P-128, 6-(3,5-difluoroanilino)-3-methoxy-N-(3-methyloxetan-3-yl)pyridine-2-carboxamide] has a pest or weed control at 200 ppm [5] of at least 80%, an inhibition at 20 ppm [3] of at least 80% and a pest or weed control at 200 ppm [6] of at least 80%. For the same molecule, the inhibition at 20 ppm [4] was at least 80%.
Work on `COc1ccc(Nc2ccnc(F)c2)nc1C(=O)NCC(C)(C)C` [Compound P-136, N-(2,2-dimethylpropyl)-6-[(2-fluoro-4-pyridyl)amino]-3-methoxy-pyridine-2-carboxamide] yielded a pest or weed control at 200 ppm [1] of at least 80% and an inhibition at 20 ppm [3] of at least 80%.
Molecule `CCc1cccc(Nc2ccc(OC)c(C(=O)NCC(C)(C)C)n2)c1` [Compound P-137, N-(2,2-dimethylpropyl)-6-(3-ethylanilino)-3-methoxy-pyridine-2-carboxamide] has a pest or weed control at 200 ppm [1] of at least 80% and an inhibition at 20 ppm [3] of at least 80%.
`COc1ccc(Nc2cc(C)cc(C#N)c2)nc1C(=O)NCC(C)(C)C` [Compound P-143, 6-(3-cyano-5-methyl-anilino)-N-(2,2-dimethylpropyl)-3-methoxy-pyridine-2-carboxamide] showed a pest or weed control at 200 ppm [1] of at least 80%.
With `COc1ccc(Nc2cc(F)c(Cl)c(F)c2)nc1C(=O)NC(C)(C)C` [Compound P-153, N-tert-butyl-6-(4-chloro-3,5-difluoro-anilino)-3-methoxy-pyridine-2-carboxamide] the pest or weed control at 200 ppm [5] was at least 80%, the inhibition at 20 ppm [2] was at least 80% and the inhibition at 20 ppm [3] was at least 80%. For the same molecule, the pest or weed control at 200 ppm [6] was at least 80% and the inhibition at 20 ppm [4] was at least 80%.
For `COc1ccc(Nc2ccc(C#N)c(F)c2)nc1C(=O)NC(C)(C)C` [Compound P-164, N-tert-butyl-6-(4-cyano-3-fluoro-anilino)-3-methoxy-pyridine-2-carboxamide], the pest or weed control at 200 ppm [5] was at least 80% and the pest or weed control at 200 ppm [6] was at least 80%.
Molecule `COc1ccc(Nc2cc(F)nc(F)c2)nc1C(=O)NC(C)C(C)C` (stereo not drawn) [Compound P-167, 6-[(2,6-difluoro-4-pyridyl)amino]-N-(1,2-dimethylpropyl)-3-methoxy-pyridine-2-carboxamide] has a pest or weed control at 200 ppm [1] of at least 80% and a pest or weed control at 200 ppm [6] of at least 80%.
`COc1ccc(Nc2cc(F)nc(F)c2)nc1C(=O)NC(C)C(C)(C)C` (stereo not drawn) [Compound P-169, 6-[(2,6-difluoro-4-pyridyl)amino]-3-methoxy-N-(1,2,2-trimethylpropyl)pyridine-2-carboxamide] showed a pest or weed control at 200 ppm [1] of at least 80% and a pest or weed control at 200 ppm [6] of at least 80%.
`COc1ccc(Nc2cc(F)nc(F)c2)nc1C(=O)NC(C)(C)C(C)(C)C` [Compound P-174, 6-[(2,6-difluoro-4-pyridyl)amino]-3-methoxy-N-(1,1,2,2-tetramethylpropyl)pyridine-2-carboxamide] was tested, and the pest or weed control at 200 ppm [1] was at least 80% and the inhibition at 20 ppm [4] was at least 80%.
`COc1ccc(Nc2cc(F)nc(F)c2)nc1C(=O)NC1(C2CCC2)CCC1` [Compound P-182, N-(1-cyclobutylcyclobutyl)-6-[(2,6-difluoro-4-pyridyl)amino]-3-methoxy-pyridine-2-carboxamide] gave a pest or weed control at 200 ppm [1] of at least 80% and a pest or weed control at 200 ppm [6] of at least 80%.
`COc1ccc(Nc2cc(F)nc(F)c2)nc1C(=O)NC1(c2cccc(Cl)n2)CCC1` [Compound P-184, N-[1-(6-chloro-2-pyridyl)cyclobutyl]-6-[(2,6-difluoro-4-pyridyl)amino]-3-methoxy-pyridine-2-carboxamide] gave a pest or weed control at 200 ppm [1] of at least 80%.
For `COc1ccc(Nc2cc(F)cc(F)c2)nc1C(=O)NC1CC(c2ccc(Cl)cc2)C1` (stereo not drawn) [Compound P-187, N-[3-(4-chlorophenyl)cyclobutyl]-6-(3,5-difluoroanilino)-3-methoxy-pyridine-2-carboxamide], the pest or weed control at 200 ppm [1] was at least 80%, the inhibition at 20 ppm [2] was at least 80% and the inhibition at 20 ppm [3] was at least 80%. The inhibition at 20 ppm [4] was at least 80%.
In the case of `COc1ccc(Nc2cc(F)nc(F)c2)nc1C(=O)NC1CC(c2ccc(Cl)cc2)C1` (stereo not drawn) [Compound P-188], the pest or weed control at 200 ppm [1] is reported as at least 80%.
`COc1ccc(N(C(C)=O)c2cc(F)nc(F)c2)nc1C(=O)NC1CCC1(C)C` (stereo not drawn) [Compound P-192, 6-[acetyl-(2,6-difluoro-4-pyridyl)amino]-N-(2,2-dimethylcyclobutyl)-3-methoxy-pyridine-2-carboxamide] gave a pest or weed control at 200 ppm [5] of at least 80% and a pest or weed control at 200 ppm [6] of at least 80%.
